The source of these data is US11492346B2, “Benzisoxazole sulfonamide derivatives” (Pfizer Inc., priority 2019, dated 2022).

Assay type in all cases: biochemical
One assay deals with KAT6A (Homo sapiens (Human), UniProt Q92794). As to the kind of experiment: KAT assay (SAMDI mass spectrometry), KAT6A.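 Also: Baculovirus-expressed KAT6A acetylating histone H3 (1-21) peptide (2 µM), 30-60 min at room temperature, % product conversion fitted to Morrison equation for tight-binding competitive inhibitors.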
The next assay addresses KAT6B (Homo sapiens (Human), UniProt Q8WYB5). The experiment in a line: KAT assay (SAMDI mass spectrometry), KAT6B.
Another assay addresses KAT5 (Homo sapiens (Human), UniProt Q92993). The experiment in a line: KAT assay (SAMDI mass spectrometry), KAT5.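 Also: Baculovirus-expressed KAT5 acetylating a histone H4 peptide at room temperature, read as percent conversion to product, Ki from a Morrison tight-binding competitive fit.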 To be noted: read-out: KAT5 Ki at 1 μM AcCoA.
The target in the next assay is KAT7 (Homo sapiens (Human), UniProt O95251). As to the kind of experiment: KAT assay (SAMDI mass spectrometry), KAT7.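 Also: Baculovirus-expressed enzyme acetylating a histone peptide at room temperature, percent conversion from product and substrate peak areas, Ki from a Morrison tight-binding competitive fit.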
Another assay concerns the target KAT8 (Homo sapiens (Human), UniProt Q9H7Z6). As to the kind of experiment: KAT assay (SAMDI mass spectrometry), KAT8. As to conditions: read-out: KAT8 Ki at 1 μM AcCoA.
Where [1] appears, read: read-out: KAT6a Ki at 1 μM AcCoA, 1 μM AcCoA.
Where [2] appears, read: read-out: KAT6a Ki at 10 μM AcCoA, 10 μM AcCoA.
Setting [3] is: 25 μM AcCoA, read-out: KAT6b Ki at 25 μM AcCoA.
The mark [4] stands for this setting: read-out: KAT7 Ki at 1 μM AcCoA.
[5] abbreviates: read-out: KAT6b Ki at 1 μM AcCoA, 1 μM AcCoA.
Where [6] appears, read: KAT6a Ki at 1 μM AcCoA, 1 μM AcCoA.

Read-outs that look alike come from different tables or passages of the source.

Sequence of KAT5 (Q92993 whole entry): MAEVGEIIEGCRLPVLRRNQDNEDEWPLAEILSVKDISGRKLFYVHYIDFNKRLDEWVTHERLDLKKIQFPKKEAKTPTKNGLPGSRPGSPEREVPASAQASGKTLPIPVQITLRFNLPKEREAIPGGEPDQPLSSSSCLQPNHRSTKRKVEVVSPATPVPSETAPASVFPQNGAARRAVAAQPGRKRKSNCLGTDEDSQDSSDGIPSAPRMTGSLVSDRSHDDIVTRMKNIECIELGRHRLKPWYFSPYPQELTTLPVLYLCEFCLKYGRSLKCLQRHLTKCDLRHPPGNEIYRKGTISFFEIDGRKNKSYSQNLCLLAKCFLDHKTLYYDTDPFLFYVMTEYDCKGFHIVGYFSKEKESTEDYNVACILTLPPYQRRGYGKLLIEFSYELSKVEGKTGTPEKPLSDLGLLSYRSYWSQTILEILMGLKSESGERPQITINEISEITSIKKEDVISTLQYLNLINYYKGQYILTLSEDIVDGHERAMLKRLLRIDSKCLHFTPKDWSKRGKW
Sequence of KAT6A (Q92794 whole entry): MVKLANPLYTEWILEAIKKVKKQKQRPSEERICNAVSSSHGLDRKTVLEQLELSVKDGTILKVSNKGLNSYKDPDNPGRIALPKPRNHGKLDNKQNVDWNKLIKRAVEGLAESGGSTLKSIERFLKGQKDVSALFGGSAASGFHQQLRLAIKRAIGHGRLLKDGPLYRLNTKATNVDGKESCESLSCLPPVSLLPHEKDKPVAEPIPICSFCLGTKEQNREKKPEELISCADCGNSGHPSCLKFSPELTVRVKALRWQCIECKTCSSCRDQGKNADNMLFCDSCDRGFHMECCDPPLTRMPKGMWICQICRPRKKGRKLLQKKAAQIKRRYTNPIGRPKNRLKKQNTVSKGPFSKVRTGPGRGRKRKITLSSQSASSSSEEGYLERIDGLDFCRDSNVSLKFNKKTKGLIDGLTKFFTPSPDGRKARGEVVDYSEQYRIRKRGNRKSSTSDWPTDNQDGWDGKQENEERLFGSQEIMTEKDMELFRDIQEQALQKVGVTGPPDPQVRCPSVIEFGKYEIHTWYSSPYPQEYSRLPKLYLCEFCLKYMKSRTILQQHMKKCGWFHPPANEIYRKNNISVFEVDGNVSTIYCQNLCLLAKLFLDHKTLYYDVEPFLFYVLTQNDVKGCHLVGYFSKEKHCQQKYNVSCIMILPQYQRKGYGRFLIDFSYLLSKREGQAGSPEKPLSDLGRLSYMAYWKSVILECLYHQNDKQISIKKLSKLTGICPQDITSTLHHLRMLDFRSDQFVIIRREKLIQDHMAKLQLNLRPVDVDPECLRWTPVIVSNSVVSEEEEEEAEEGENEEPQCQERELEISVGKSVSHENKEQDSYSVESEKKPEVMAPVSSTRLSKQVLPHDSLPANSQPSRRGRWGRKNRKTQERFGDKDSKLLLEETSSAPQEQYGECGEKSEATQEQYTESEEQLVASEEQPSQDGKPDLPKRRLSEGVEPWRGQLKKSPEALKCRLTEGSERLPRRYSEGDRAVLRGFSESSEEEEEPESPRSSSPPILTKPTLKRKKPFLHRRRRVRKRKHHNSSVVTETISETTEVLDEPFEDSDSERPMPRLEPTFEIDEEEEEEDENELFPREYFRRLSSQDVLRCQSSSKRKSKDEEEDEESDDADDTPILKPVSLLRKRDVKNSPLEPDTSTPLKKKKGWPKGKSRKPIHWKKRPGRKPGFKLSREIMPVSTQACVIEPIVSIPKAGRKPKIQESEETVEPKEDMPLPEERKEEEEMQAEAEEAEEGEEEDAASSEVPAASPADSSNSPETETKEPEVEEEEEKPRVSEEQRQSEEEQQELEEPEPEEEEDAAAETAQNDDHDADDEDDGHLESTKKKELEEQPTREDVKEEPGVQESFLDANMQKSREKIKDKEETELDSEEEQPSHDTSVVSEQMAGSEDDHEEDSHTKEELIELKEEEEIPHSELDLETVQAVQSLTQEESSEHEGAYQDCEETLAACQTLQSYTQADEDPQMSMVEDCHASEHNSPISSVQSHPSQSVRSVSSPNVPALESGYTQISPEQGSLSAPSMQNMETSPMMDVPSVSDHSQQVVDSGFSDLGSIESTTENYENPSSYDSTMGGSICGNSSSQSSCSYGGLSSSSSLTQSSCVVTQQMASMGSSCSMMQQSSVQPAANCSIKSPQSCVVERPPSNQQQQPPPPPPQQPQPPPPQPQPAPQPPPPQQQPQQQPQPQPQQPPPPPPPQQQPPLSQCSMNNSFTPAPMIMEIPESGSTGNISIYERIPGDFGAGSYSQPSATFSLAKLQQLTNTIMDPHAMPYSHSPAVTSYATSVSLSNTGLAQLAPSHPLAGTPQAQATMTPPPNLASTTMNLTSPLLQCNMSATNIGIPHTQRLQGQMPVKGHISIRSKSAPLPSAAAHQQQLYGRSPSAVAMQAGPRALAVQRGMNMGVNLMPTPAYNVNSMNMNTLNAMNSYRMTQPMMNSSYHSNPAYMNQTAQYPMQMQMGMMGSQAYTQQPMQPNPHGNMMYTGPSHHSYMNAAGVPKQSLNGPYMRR
Sequence of KAT7 (O95251 whole entry): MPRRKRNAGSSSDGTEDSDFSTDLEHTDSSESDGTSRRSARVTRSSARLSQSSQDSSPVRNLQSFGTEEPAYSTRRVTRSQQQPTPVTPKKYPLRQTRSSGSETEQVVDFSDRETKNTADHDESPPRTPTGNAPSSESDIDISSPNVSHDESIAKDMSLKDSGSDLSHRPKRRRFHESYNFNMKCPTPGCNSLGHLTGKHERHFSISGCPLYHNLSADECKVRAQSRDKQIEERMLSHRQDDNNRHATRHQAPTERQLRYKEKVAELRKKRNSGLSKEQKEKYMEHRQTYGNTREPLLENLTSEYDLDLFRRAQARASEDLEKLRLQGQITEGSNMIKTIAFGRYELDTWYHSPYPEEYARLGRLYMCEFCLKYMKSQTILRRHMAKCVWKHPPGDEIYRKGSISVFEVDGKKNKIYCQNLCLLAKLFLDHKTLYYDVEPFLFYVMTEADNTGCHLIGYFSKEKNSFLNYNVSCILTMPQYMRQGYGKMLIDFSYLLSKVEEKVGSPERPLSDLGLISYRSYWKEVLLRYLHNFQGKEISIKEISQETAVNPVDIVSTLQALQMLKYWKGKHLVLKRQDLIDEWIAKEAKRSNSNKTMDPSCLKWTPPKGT
Sequence of KAT8 (Q9H7Z6 whole entry): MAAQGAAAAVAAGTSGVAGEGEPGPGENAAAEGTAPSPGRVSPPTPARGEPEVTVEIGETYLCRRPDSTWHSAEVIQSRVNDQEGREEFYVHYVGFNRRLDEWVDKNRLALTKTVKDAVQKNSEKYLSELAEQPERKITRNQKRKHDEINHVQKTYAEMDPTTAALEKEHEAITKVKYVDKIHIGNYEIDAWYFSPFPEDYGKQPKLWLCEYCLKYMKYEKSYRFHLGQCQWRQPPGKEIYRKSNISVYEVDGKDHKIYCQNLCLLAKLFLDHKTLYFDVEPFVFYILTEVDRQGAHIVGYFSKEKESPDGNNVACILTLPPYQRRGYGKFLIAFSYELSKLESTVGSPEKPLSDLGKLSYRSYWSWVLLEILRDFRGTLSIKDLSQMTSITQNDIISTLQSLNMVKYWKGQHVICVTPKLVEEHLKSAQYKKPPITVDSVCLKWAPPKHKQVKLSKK
Protocol for KAT6A: (§1) Prepare 10 mM stock solutions in 100% DMSO from solid material • 2. Serial dilute 10 mM, 1 mM or 0.1 mM compound stocks 3-fold in 100% DMSO for 11-point dose response
(§2) Prepare 1× assay buffer containing 10 mM Tris HCL pH 8.0, 2.5 mM NaCl, 0.5 mM EDTA, 0.005% BSG and 0.02% Tween-20 • 2. Dilute Histone peptide (CPC Scientific) and AcCoA (Sigma) together in assay buffer to 2×. • 3. Dilute KAT enzyme in assay buffer to 2×.
(§3) Enzyme reaction • 1. Final reaction conditions for each KAT assay in a 20 ul assay reaction volume: • i. KAT5 25 nM, 1 uM AcCoA, 2 uM H4 1-21 peptide, 30-minute reaction • ii. KAT6A 15 nM, 1 uM AcCoA, 2 uM H3 1-21 peptide, 45-minute reaction • iii. KAT6B 25 nM, 1 uM AcCoA, 2 uM H3 1-21 peptide, 60-minute reaction • iv. KAT7 12.5 nM, 1 uM AcCoA, 2 uM H3 1-21 peptide, 45-minute reaction • v. KAT8 15 nM, 1 uM AcCoA, 2 uM H3 1-21 peptide, 45-minute reaction • 2. Add 0.5 ul of diluted compound to the assay plate (384-well V-bottom polypropylene plates) or 0.5 ul of DMSO for control wells. • 3. Add 10 ul of 2× Histone peptide/2×AcCoA mix to the assay plate. • 4. Add 10 ul of 2× enzyme to the assay plate. • 5. Stop the reaction after the indicated time with the addition of 2 ul of 5% formic acid • 6. Each reaction was analyzed using self-assembled monolayer desorption/ionization time-of-flight mass spectrometry (Mrksich, Milan (2008) Mass Spectrometry of Self-Assembled Monolayers: A New Tool for Molecular Surface Science ACS Nano 2008 2 (1), 7-18; SAMDI Tech, Inc. (Chicago, Ill.)). • 7. Area under the curve (AUC) for both substrate and product peaks was determined for KAT5 at M.W. 2561 [Substrate+H]^+ and 2603 [Product+H]^+ with a +/−1 Da tolerance, respectively • 8. Area under the curve (AUC) for both substrate and product peaks was determined for KAT6a, KAT6B, KAT7 and KAT8 at M.W. 2723 [Substrate+H]^+ and 2765 [Product+H]^+ with a +/−1 Da tolerance, respectively. […] Percent conversion to product was calculated by: AUCProduct/(AUCsubstrate+AUCProduct).
(§4) IC50 values were determined by fitting the % conversion at each inhibitor concentration to the 4-parameter IC50 equation using Pfizer proprietary curve fitting software. • 2. Ki values were determined by fitting the % conversion at each inhibitor concentration to the Morrison equation for tightbinding competitive inhibitors using Pfizer proprietary curve fitting software.
(§5) KAT enzymes were expressed using a baculovirus expression system and purified at Pfizer, La Jolla. […] Acetyl coenzyme A was purchased from Sigma-Aldrich (St. Louis, Mo.). All other biochemical reagents were purchased from Sigma-Aldrich or ThermoFisher Scientific (Waltham, Mass.).
(§6) KAT assays were performed at room temperature in assay buffer containing 1 μM AcCoA, 2 μM histone peptide, 10 mM Tris HCL pH 8.0, 2.5 mM NaCl, 0.5 mM EDTA, 0.005% BSG and 0.02% Tween-20. 10 ul of 2× Histone peptide/AcCoA mix was added to a 384-well V-bottom polypropylene assay plate containing 0.5 ul of serially diluted test compound in 100% dimethyl sulfoxide (DMSO). To start the reaction, 10 ul of 2× enzyme solution was added to the assay plate. KAT assays were terminated after 30-60 minutes with the addition of 2 ul of 5% formic acid. All assays used histone H3 (1-21) peptide except for the KAT5 assay which used histone H4 (1-21) peptide. The final enzyme concentration for each KAT was as follows: KAT5, 25 nM; KAT6A, 15 nM; KAT6B, 25 nM; KAT7, 12.5 nM; KAT8 15 nM. Each reaction was analyzed using self-assembled monolayer desorption/ionization time-of-flight mass spectrometry (Mrksich, Milan (2008) Mass Spectrometry of Self-Assembled Monolayers: A New Tool for Molecular Surface Science ACS Nano 2008 2 (1), 7-18; SAMDI Tech, Inc. (Chicago, Ill.)).
(§7) Area under the curve (AUC) for both substrate and product peaks was determined for KAT5 at M.W. 2561 [Substrate+H]^+ and 2603 [Product+H]^+ with a +/−1 Da tolerance, respectively.
Protocol for KAT6B: as §1, §2, §3, §4, §5, §6, §7

One may read the Ki as a dissociation constant, usually derived from enzyme kinetics or from competition with a known ligand. As for `COc1cc(Cn2cccn2)cc2onc(NS(=O)(=O)c3cccc(C)c3C#N)c12` [Example 76], the Ki on KAT6A (setting [1]) is 7.89 nM; at KAT6A (setting [2]), 3.62 nM; at KAT6B (setting [3]), 60.1 nM; at KAT5 it was 4380 nM; on KAT7 (setting [4]), 330 nM; on KAT8 it was 12500 nM.

Turning to `COc1cc(Cn2cccn2)cc2onc(NS(=O)(=O)c3ccc(C(F)F)cc3)c12` [Example 77], the Ki on KAT6A (setting [1]) came out at 8.56 nM; at KAT6A (setting [2]) it was 11.9 nM; on KAT6B (setting [3]) it was 29.6 nM; on KAT5, 8450 nM; on KAT7 (setting [4]), 460 nM; on KAT8, 12500 nM.

As to `COc1cccc(OC)c1S(=O)(=O)Nc1noc2cc(Cn3cccn3)cc(OC(C)C)c12` [Example 10], the Ki at KAT6A (setting [1]) was found to be 2.72 nM; at KAT6A (setting [2]), 4.65 nM; at KAT6B (setting [5]), 2.27 nM; at KAT5 it was 60200 nM; at KAT7 (setting [4]), 9320 nM; on KAT8, 19400 nM.

`COc1ccccc1S(=O)(=O)Nc1noc2cc(Cn3cccn3)ccc12` [Example 34]: the Ki was determined as 30 nM on KAT6A (setting [1]), 4.2 nM at KAT6B (setting [3]) and 1200 nM at KAT7 (setting [4]).

Turning to `COc1cccc(OC)c1S(=O)(=O)Nc1noc2cc(Cn3cccn3)c(F)c(OC)c12` [Example 128, N-{5-fluoro-4-methoxy-6-[(1H-pyrazol-1-yl)methyl]-1,2-benzoxazol-3-yl}-2,6-dimethoxybenzene-1-sulfonamide], the Ki at KAT6A (setting [1]) was 0.54 nM; on KAT6A (setting [2]), 0.59 nM; on KAT6B (setting [3]), 1.2 nM; at KAT7 (setting [4]), 49 nM.

On to `COc1cc2c(cc1S(=O)(=O)Nc1noc3cc(Cn4cccn4)cc(OC)c13)CCCC2` [Example 20], for which the Ki at KAT6A (setting [1]) was found to be 0.34 nM; at KAT6A (setting [2]), 0.87 nM; at KAT6B (setting [3]), 4.08 nM; on KAT6B (setting [5]) it was 1.78 nM; at KAT5 it was 150 nM; at KAT8, 470 nM.

In the case of `COc1cc2c(cc1S(=O)(=O)Nc1noc3cc(Cn4cccn4)cc(OC)c13)CCCO2` [Example 42], the figures for the Ki at KAT6A (setting [1]), at KAT6B (setting [3]) and on KAT7 (setting [4]) were 0.72 nM, 0.48 nM and 160 nM, respectively.

For the compound `COc1cccc(OC)c1S(=O)(=O)Nc1noc2cc(Cn3cccn3)c(C3CC3)cc12` [Example 31], the Ki on KAT6A (setting [1]) turned out to be 0.32 nM; at KAT6B (setting [3]), 0.89 nM; on KAT7 (setting [4]) it was 56 nM.

In the case of `COc1cccc(OC)c1S(=O)(=O)Nc1noc2cc(Cc3ccccn3)cc(OC)c12` [Example 107, 2,6-dimethoxy-N-[4-methoxy-6-(pyridin-2-ylmethyl)-1,2-benzoxazol-3-yl]benzenesulfonamide], the Ki on KAT6A (setting [1]) came out at 1.7 nM; on KAT6A (setting [2]), 2.6 nM; at KAT6B (setting [3]), 2.9 nM; at KAT7 (setting [4]), 370 nM.

For the compound `COc1cc2c(NS(=O)(=O)c3c(OC)cccc3OC)noc2cc1Cn1cccn1` [Example 39], the inhibitory constant (Ki) on KAT6A (setting [1]) amounted to 0.74 nM; on KAT6B (setting [3]), 0.26 nM; on KAT7 (setting [4]), 8 nM.

`CCc1ccc(OC)c(S(=O)(=O)Nc2noc3cc(Cn4cccn4)c(F)cc23)c1` [Example 32]: the Ki on KAT6A (setting [1]) amounted to 1.4 nM; at KAT6B (setting [3]), 2.1 nM; at KAT7 (setting [4]), 60 nM.

As to `COc1cccc(OC)c1S(=O)(=O)Nc1noc2cc(Cc3ncco3)cc(OC)c12` [Example 110, 2,6-dimethoxy-N-[4-methoxy-6-(1,3-oxazol-2-ylmethyl)-1,2-benzoxazol-3-yl]benzenesulfonamide], the Ki stood at 2.5 nM at KAT6A (setting [6]); 2.1 nM on KAT6A (KAT6a Ki at 10 μM AcCoA, 10 μM AcCoA); 8.8 nM at KAT6B (setting [3]); 230 nM at KAT7 (KAT7 Ki at 1 μM AcCoA).

Consider `COc1cccc(OC)c1S(=O)(=O)Nc1noc2cc(Cc3ncccn3)cc(OC)c12` [Example 116], for which the Ki at KAT6A (setting [1]) was 3 nM; at KAT6B (setting [3]) it was 25 nM; at KAT7 (setting [4]), 95 nM.

Turning to `COc1cccc(OC)c1S(=O)(=O)Nc1noc2cc(Cc3ccon3)cc(OC)c12` [Example 114], the Ki at KAT6A (setting [1]) worked out at 1.9 nM; on KAT6B (setting [3]), 2 nM; on KAT7 (setting [4]), 220 nM.

As to `COc1cc(Cn2cccn2)cc2onc(NS(=O)(=O)c3cc(C)ccc3F)c12` [Example 58], the Ki on KAT6A (setting [1]) was determined as 11.1 nM; at KAT6A (setting [2]), 5.23 nM; on KAT7 (setting [4]), 860 nM.

In the case of `COc1cc(S(=O)(=O)Nc2noc3cc(Cn4cccn4)cc(OC)c23)ccc1F` [Example 82], the Ki came to 16.9 nM at KAT6A (setting [1]), 12.2 nM on KAT6A (setting [2]) and 640 nM at KAT7 (setting [4]).

Turning to `COc1cc(Cn2cccn2)cc2onc(NS(=O)(=O)c3cc(F)c(F)cc3F)c12` [Example 86], the Ki was 28.9 nM at KAT6A (setting [1]), 7.11 nM at KAT6A (setting [2]) and 370 nM at KAT7 (setting [4]).

Take `COc1cccc(OC)c1S(=O)(=O)Nc1noc2cc(C(O)c3ccon3)cc(OC)c12` (single isomer, unassigned) [Example 113]: the Ki on KAT6A (setting [6]) is 14 nM; on KAT7 (KAT7 Ki at 1 μM AcCoA) it was 2800 nM.

For `COc1cccc(OC)c1S(=O)(=O)Nc1noc2cc(C(O)c3cc[nH]n3)cc(OC)c12` (single isomer, unassigned) [Example 118], the Ki at KAT6A (setting [6]) amounted to 357 nM; at KAT7 (KAT7 Ki at 1 μM AcCoA) it was 2300 nM.

For `COc1cccc(OC)c1S(=O)(=O)Nc1noc2cc(Cc3cnn(C)c3)cc(OC)c12` [Example 124], the Ki is 700 nM on KAT6A (setting [1]) and 6290 nM at KAT7 (setting [4]).

For `COCc1ccccc1S(=O)(=O)Nc1noc2cc(Cn3cccn3)cc(OC)c12` [Example 67], the Ki on KAT6A (setting [1]) turned out to be 20 nM; at KAT6A (setting [2]), 10.2 nM; on KAT7 (setting [4]) it was 1760 nM.

Take `COc1cc(Cn2cccn2)cc2onc(NS(=O)(=O)c3cccc(F)c3C)c12` [Example 56]: the Ki at KAT6A (setting [1]) was determined as 14.9 nM; on KAT6A (setting [2]), 7.31 nM; at KAT7 (setting [4]), 600 nM.

`COc1cccc(OC)c1S(=O)(=O)Nc1noc2cc(Cc3cc[nH]n3)cc(OC)c12` [Example 119]: the Ki at KAT6A (setting [1]) turned out to be 21 nM; on KAT6A (setting [2]) it was 13 nM; on KAT7 (setting [4]), 650 nM.

Consider `COc1cc(Cn2cccn2)cc2onc(NS(=O)(=O)c3cccc(F)c3F)c12` [Example 54], for which the results for the Ki at KAT6A (setting [1]), on KAT6A (setting [2]) and on KAT7 (setting [4]) were 57 nM, 38 nM and 1160 nM, respectively.

On to `COC(=O)c1cccc(C)c1S(=O)(=O)Nc1noc2cc(Cn3cccn3)cc(OC)c12` [Example 55], for which the Ki at KAT6A (setting [1]) was 291 nM; at KAT6A (setting [2]), 178 nM; at KAT7 (setting [4]), 15000 nM.

As for `COc1ccccc1S(=O)(=O)Nc1noc2cc(Cn3cccn3)cc(C3CC3)c12` [Example 130], the values for the Ki on KAT6A (setting [1]) and at KAT7 (setting [4]) were 0.77 nM and 100 nM, respectively.

Turning to `COCc1ccc(OC)c(S(=O)(=O)Nc2noc3cc(Cn4cccn4)c(F)cc23)c1` [Example 44], the inhibitory constant (Ki) on KAT6A (setting [1]) came to 12 nM; on KAT6B (setting [3]), 43 nM; at KAT7 (setting [4]), 630 nM.

Consider `COc1cccc(OC)c1S(=O)(=O)Nc1noc2cc(Cn3cccn3)c(OC(F)F)cc12` [Example 41], for which the Ki came to 0.36 nM at KAT6A (setting [1]), 0.36 nM at KAT6B (setting [3]) and 230 nM on KAT7 (setting [4]).

For the compound `COc1cccc(OC)c1S(=O)(=O)Nc1noc2cc(Cc3cocn3)cc(OC)c12` [Example 127], the figures for the Ki at KAT6A (setting [1]) and at KAT7 (setting [4]) were 8.6 nM and 137 nM, respectively.

On to `Cc1ccc(S(=O)(=O)Nc2noc3cc(Cn4cccn4)c(C)cc23)cc1C` [Example 131], for which the figures for the Ki on KAT6A (setting [1]) and on KAT7 (setting [4]) were 28.3 nM and 662 nM, respectively.

In the case of `CNC(=O)c1ccc(S(=O)(=O)Nc2noc3cc(Cn4cccn4)cc(OC)c23)cc1` [Example 66], the Ki on KAT6A (setting [1]) was 95.4 nM; at KAT6A (setting [2]), 65.6 nM; at KAT7 (setting [4]) it was 4050 nM.
